Data taken from the NIST ThermoML archive (doi:10.1021/acs.jced.9b00424).

Tests used:
[1] = xn = mol fraction of the nth substance listed; conditions: x1 = 1; for viscosity: 100 kPa, Concentric cylinders viscometry; for viscosity / mass density: Liquid; for mass density: 101 kPa, Vibrating tube method; for surface tension liquid-gas: Pendant drop shape

CC(C)[C@@H]1CC[C@@H](C)C[C@H]1O [DL-menthol] + CCCCCCCC(=O)O
[1]
Conditions	mass density [kg/m3]	surface tension liquid-gas [mN/m]	viscosity [mPa·s]
303.15 K	898.2	–	33.9
303.79 K	–	21.82	–
308.15 K	892.2	–	23.19
308.76 K	–	21.35	–
313.15 K	886.4	–	16.44
314.03 K	–	20.44	–
318.15 K	881	–	12
318.76 K	–	19.91	–
323.15 K	875.8	–	9
323.45 K	–	19.18	–
328.15 K	870.8	–	6.92
328.55 K	–	18.76	–
333.09 K	–	18.15	–
333.15 K	866.2	–	5.43
338.15 K	861.7	–	4.34
343.15 K	857.6	–	3.53
348.15 K	853.7	–	2.92
353.15 K	850	–	2.446

CCCCCCCC(=O)O [octanoic acid]
Liquid, Pendant drop shape
Conditions	surface tension liquid-gas [mN/m]
297.82 K	30.95
302.68 K	30.04
308.49 K	28.56
312.93 K	27.56
317.8 K	26.06
322.15 K	24.99
327.39 K	24.46
331.72 K	23.43

Liquid
Conditions	mass density [kg/m3]	viscosity [mPa·s]
298.15 K, 100 kPa, Concentric cylinders viscometry	–	5.17
298.15 K, 101 kPa, Vibrating tube method	917.2	–
303.15 K, 100 kPa, Concentric cylinders viscometry	–	4.54
303.15 K, 101 kPa, Vibrating tube method	910.3	–
308.15 K, 100 kPa, Concentric cylinders viscometry	–	4.01
308.15 K, 101 kPa, Vibrating tube method	903.8	–
313.15 K, 100 kPa, Concentric cylinders viscometry	–	3.59
313.15 K, 101 kPa, Vibrating tube method	897.6	–
318.15 K, 100 kPa, Concentric cylinders viscometry	–	3.2
318.15 K, 101 kPa, Vibrating tube method	891.7	–
323.15 K, 100 kPa, Concentric cylinders viscometry	–	2.88
323.15 K, 101 kPa, Vibrating tube method	886.2	–
328.15 K, 100 kPa, Concentric cylinders viscometry	–	2.609
328.15 K, 101 kPa, Vibrating tube method	880.9	–
333.15 K, 100 kPa, Concentric cylinders viscometry	–	2.372
333.15 K, 101 kPa, Vibrating tube method	876	–
338.15 K, 100 kPa, Concentric cylinders viscometry	–	2.166
338.15 K, 101 kPa, Vibrating tube method	871.4	–
343.15 K, 100 kPa, Concentric cylinders viscometry	–	1.985
343.15 K, 101 kPa, Vibrating tube method	867.1	–
348.15 K, 100 kPa, Concentric cylinders viscometry	–	1.826
348.15 K, 101 kPa, Vibrating tube method	863	–
353.15 K, 100 kPa, Concentric cylinders viscometry	–	1.683
353.15 K, 101 kPa, Vibrating tube method	859.3	–

CC(C)[C@@H]1CC[C@@H](C)C[C@H]1O (racemic) [DL-menthol]
Conditions	mass density [kg/m3]	viscosity [mPa·s]
303.15 K, 100 kPa, Metastable liquid, Concentric cylinders viscometry	–	33.9
303.15 K, 101 kPa, Metastable liquid, Vibrating tube method	898.2	–
308.15 K, 100 kPa, Concentric cylinders viscometry, Liquid	–	23.19
308.15 K, 101 kPa, Vibrating tube method, Liquid	892.2	–
313.15 K, 100 kPa, Concentric cylinders viscometry, Liquid	–	16.44
313.15 K, 101 kPa, Vibrating tube method, Liquid	886.4	–
318.15 K, 100 kPa, Concentric cylinders viscometry, Liquid	–	12
318.15 K, 101 kPa, Vibrating tube method, Liquid	881	–
323.15 K, 100 kPa, Concentric cylinders viscometry, Liquid	–	9
323.15 K, 101 kPa, Vibrating tube method, Liquid	875.8	–
328.15 K, 100 kPa, Concentric cylinders viscometry, Liquid	–	6.92
328.15 K, 101 kPa, Vibrating tube method, Liquid	870.8	–
333.15 K, 100 kPa, Concentric cylinders viscometry, Liquid	–	5.43
333.15 K, 101 kPa, Vibrating tube method, Liquid	866.2	–
338.15 K, 100 kPa, Concentric cylinders viscometry, Liquid	–	4.34
338.15 K, 101 kPa, Vibrating tube method, Liquid	861.7	–
343.15 K, 100 kPa, Concentric cylinders viscometry, Liquid	–	3.53
343.15 K, 101 kPa, Vibrating tube method, Liquid	857.6	–
348.15 K, 100 kPa, Concentric cylinders viscometry, Liquid	–	2.92
348.15 K, 101 kPa, Vibrating tube method, Liquid	853.7	–
353.15 K, 100 kPa, Concentric cylinders viscometry, Liquid	–	2.446
353.15 K, 101 kPa, Vibrating tube method, Liquid	850	–

surface tension liquid-gas [mN/m]
Conditions	303.79 K	308.76 K	314.03 K	318.76 K	323.45 K	328.55 K	333.09 K
Metastable liquid, Pendant drop shape	21.82	–	–	–	–	–	–
Pendant drop shape, Liquid	–	21.35	20.44	19.91	19.18	18.76	18.15
